The record followed here is ChEMBL document CHEMBL1143871, “Small P-gp modulating molecules: SAR studies on tetrahydroisoquinoline derivatives” (Bioorg Med Chem, 2008).

In series [1] the target is T1, ATP-dependent translocase ABCB1 (Homo sapiens, UniProt P08183). Kind of series: Inhibition of human Pgp mediated [3H]vinblastine transport in human Caco-2 cells. In kind it is cell-based. (Caco-2 cells form a polarised layer with tight junctions and transporters.)
The nature of series [2]: Apparent permeability from basolateral to apical side of human Caco-2 cell membrane. Type of series: ADME, cell-based.
Series [3] can be described thus: Apparent permeability from apical to basolateral side of human Caco-2 cell membrane. In kind it is ADME, cell-based.
The nature of series [4]: Ratio of apparent permeability from basolateral to apical over apical to basolateral side of human Caco-2 cell membrane.
Series [5] addresses T1, ATP-dependent translocase ABCB1. The series is described as follows: Activation of human Pgp ATPase in human Caco-2 cells at 100 uM. Type of series: cell-based. Particulars: caco-2, 100 µM.
The target is the same in series [6]. Kind of series: Inhibition of human Pgp in adriamycin resistant MCF7 cells assessed as fold increase in accumulation of doxorubicin at 20 uM relative to control. Type of series: cell-based. The settings on record: mcf7, 20 µM.
For series [7], the system named is MCF7. The series is described as follows: Antiproliferative activity against adriamycin resistant human MCF7 cells assessed by MTT assay at 100 uM after 48 hrs. For orientation: Formazan colour is commonly taken as a measure of viable cells.
Series [8] concerns MCF7. The series is described as follows: Cytotoxic activity against adriamycin resistant human MCF7 cells assessed as LDH release at 100 uM after 24 hrs. Type of series: functional.

T1 sequence (P08183 whole entry): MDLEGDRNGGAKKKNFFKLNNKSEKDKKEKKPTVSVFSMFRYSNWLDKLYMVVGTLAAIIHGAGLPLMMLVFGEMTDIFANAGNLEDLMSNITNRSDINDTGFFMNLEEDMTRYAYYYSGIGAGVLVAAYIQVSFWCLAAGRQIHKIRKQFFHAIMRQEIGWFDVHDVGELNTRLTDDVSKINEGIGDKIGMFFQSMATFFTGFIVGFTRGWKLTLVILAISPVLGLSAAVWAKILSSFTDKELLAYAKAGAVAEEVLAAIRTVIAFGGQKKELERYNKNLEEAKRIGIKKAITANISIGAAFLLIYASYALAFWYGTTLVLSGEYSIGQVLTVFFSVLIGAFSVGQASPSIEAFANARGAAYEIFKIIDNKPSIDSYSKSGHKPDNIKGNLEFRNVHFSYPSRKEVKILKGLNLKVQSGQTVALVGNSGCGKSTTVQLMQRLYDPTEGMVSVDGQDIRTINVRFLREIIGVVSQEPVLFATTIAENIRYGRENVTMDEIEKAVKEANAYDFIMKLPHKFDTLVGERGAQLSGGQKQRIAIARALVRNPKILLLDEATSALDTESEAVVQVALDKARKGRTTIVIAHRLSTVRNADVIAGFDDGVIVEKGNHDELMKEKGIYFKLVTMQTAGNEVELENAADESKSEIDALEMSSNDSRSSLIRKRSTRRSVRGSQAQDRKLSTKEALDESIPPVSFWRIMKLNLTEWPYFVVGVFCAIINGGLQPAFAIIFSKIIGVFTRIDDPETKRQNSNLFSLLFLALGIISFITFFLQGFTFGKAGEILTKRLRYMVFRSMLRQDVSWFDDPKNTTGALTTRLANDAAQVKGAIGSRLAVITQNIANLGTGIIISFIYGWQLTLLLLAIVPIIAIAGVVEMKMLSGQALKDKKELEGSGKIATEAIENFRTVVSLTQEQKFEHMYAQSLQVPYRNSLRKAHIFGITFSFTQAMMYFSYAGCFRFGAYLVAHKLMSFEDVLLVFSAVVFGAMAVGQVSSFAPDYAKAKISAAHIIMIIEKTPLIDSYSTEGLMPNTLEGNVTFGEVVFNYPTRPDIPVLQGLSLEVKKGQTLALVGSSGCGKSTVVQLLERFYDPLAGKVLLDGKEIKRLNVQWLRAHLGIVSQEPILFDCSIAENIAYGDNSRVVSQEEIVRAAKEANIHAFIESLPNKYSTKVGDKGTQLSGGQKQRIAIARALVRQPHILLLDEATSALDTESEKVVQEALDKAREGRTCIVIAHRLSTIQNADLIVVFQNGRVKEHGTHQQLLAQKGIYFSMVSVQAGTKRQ

As to `COc1cc2c(cc1OC)CN(CCCC1CCCc3cc(OC)c(OC)cc31)CC2` (stereo not drawn), in series [1], the EC50 (as a rule, the concentration giving half of the maximal effect) came to 17.9 µM. For the same compound, in series [2], the basolateral-to-apical permeability (Papp B→A) (commonly how fast a substance crosses the layer from the basolateral side) was found to be 4400 nm/s. In addition, the Papp A→B (as a rule, how fast a substance crosses the layer from the apical side) in series [3] is 868 nm/s. The efflux ratio (commonly a quotient of directional permeabilities that is used to spot active efflux) in series [4] turned out to be 5.1. The compound also displayed an Activity in series [5] of 62%.

Turning to `COc1cc2c(cc1OC)CN(CCCC1CCCc3c(OC)cccc31)CC2` (stereo not drawn), the Activity in series [6] is 4.8; with MCF7 [7], <20%; in the series on MCF7 [8], <20%; in series [5], 70%. For the same compound, in series [1], a half-maximal response (EC50) required 6.35 µM. In addition, in series [2], the Papp B→A was 1040 nm/s. Moreover, the Papp A→B in series [3] was found to be 56 nm/s. Besides, in series [4], the efflux ratio came to 18.

Compound `COc1ccc2c(c1)C(CCCN1CCc3cc(OC)c(OC)cc3C1)=CCC2` gave an EC50 in series [1] of 35.5 µM. Also, in series [2], the apparent permeability from basolateral to apical (Papp B→A) stood at 3320 nm/s. The Papp A→B in series [3] is 610 nm/s. Also, in series [4], the efflux ratio was 5.4. In series [5], this compound returned an Activity of 20%.

The compound `COc1ccc2c(c1)CCCC2CCCN1CCc2cc(OC)c(OC)cc2C1` (stereo not drawn) had an EC50 in series [1] of 8.15 µM. Moreover, in series [2], the apparent permeability from basolateral to apical (Papp B→A) worked out at 3510 nm/s. The apical-to-basolateral permeability (Papp A→B) in series [3] came to 828 nm/s. Also, the efflux ratio in series [4] came out at 4.2. This compound registered an Activity in series [5] of 27%.

For the compound `COc1cccc2c1CCCC2CCCN1CCN(C2CCCCC2)CC1` (stereo not drawn), the EC50 in series [1] stood at 0.55 µM. In addition, in series [2], the Papp B→A came to 4360 nm/s. The apical-to-basolateral permeability (Papp A→B) in series [3] amounted to 2500 nm/s. For the same compound, in series [4], the efflux ratio was 1.7.

Regarding `COc1cccc2c1CCC/C2=C\CCN1CCCCC1`, the response in series [1] was half-maximal at 8.2 µM (EC50). Further, the apparent permeability from basolateral to apical (Papp B→A) in series [2] amounted to 2560 nm/s. In series [3], the apical-to-basolateral permeability (Papp A→B) stood at 584 nm/s. Moreover, in series [4], the efflux ratio was 4.4.

For `COc1cc2c(cc1OC)CN(CCCC1=CCCc3c(OC)cccc31)CC2`, the 50% effective concentration (EC50) in series [1] is 15 µM. For the same compound, the basolateral-to-apical permeability (Papp B→A) in series [2] is 1140 nm/s. Besides, in series [3], the apparent permeability from apical to basolateral (Papp A→B) was determined as 160 nm/s. Also, in series [4], the efflux ratio turned out to be 7.1. Besides, in series [5], the Activity is listed as 30%.

`COc1ccc2c(c1)/C(=C/CCN1CCc3cc(OC)c(OC)cc3C1)CCC2`: the Activity in series [6] was 4.1; with MCF7 [7] it was <20%; in the series with MCF7 [8] it was <20%. The EC50 in series [1] turned out to be 4.86 µM. In addition, in series [2], the Papp B→A is 6570 nm/s. For the same compound, the Papp A→B in series [3] turned out to be 1660 nm/s. The efflux ratio in series [4] is 3.9.

`COc1cc2c(cc1OC)CN(CCC=C1CCCCC1)CC2`: in series [1], a half-maximal response (EC50) required 15.2 µM. In series [2], the basolateral-to-apical permeability (Papp B→A) stood at 2400 nm/s. Moreover, in series [3], the Papp A→B is 774 nm/s. For the same compound, in series [4], the efflux ratio is 3.1.

In turn, `COc1ccc2c(c1)CCC=C2CCCN1CCc2cc(OC)c(OC)cc2C1` displayed an EC50 in series [1] of 83.7 µM. The Papp B→A in series [2] is 1510 nm/s. Further, the Papp A→B in series [3] was 407 nm/s. Also, the efflux ratio in series [4] worked out at 3.7.

Turning to `COc1cc2c(cc1OC)CN(CC/C=C1\CCCc3c(OC)cccc31)CC2`, the Activity in series [6] was 5.7; in the series on MCF7 [7], 25%; in the series on MCF7 [8], <20%. This compound also showed a 50% effective concentration (EC50) in series [1] of 1.64 µM. The Papp B→A in series [2] worked out at 386 nm/s. The Papp A→B in series [3] came out at 237 nm/s. Also, the efflux ratio in series [4] was found to be 1.6.

With `COc1ccc2c(c1)C(CCCN1CCc3cc(OC)c(OC)cc3C1)CCC2` (stereo not drawn), the 50% effective concentration (EC50) in series [1] amounted to 10.2 µM. The Papp B→A in series [2] turned out to be 1700 nm/s. The Papp A→B in series [3] turned out to be 460 nm/s. Besides, the efflux ratio in series [4] came out at 3.7. This compound also yielded an Activity in series [5] of 15%.

Regarding `COc1cc2c(cc1OC)CN(CCCC1=CCCc3cc(OC)c(OC)cc31)CC2`, the response in series [1] was half-maximal at 31.6 µM (EC50). Also, in series [2], the Papp B→A amounted to 1030 nm/s. Moreover, in series [3], the Papp A→B turned out to be 672 nm/s. In series [4], the efflux ratio was found to be 1.5. Moreover, the Activity in series [5] worked out at 15%.
